Where “and” joins values, the source holds several entries; their conditions need not be identical. Equal entries are not always repeated. Where two headings read alike, the source gives them in different places.
Experiments:
[1] = test system: IRF7 5'UTR firefly luciferase reporter in HEK293T cells; conditions: for LONG (summary - All), normalized to DMSO / SHORT (summary - All), normalized to DMSO: individual replicates, outliers excluded, DMSO = 1; for average ( long vs short ratio): summary - All;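 for all read-outs here: luciferase signal corrected by a co-transfected GFP reporter for transfection efficiency, read after overnight compound exposure, with Long and Short reporters differing in 5'UTR length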
Method: For the effect on ribosomal scanning, we used two firefly luciferase reporter genes that differ in their 5'UTR length (Fig. 1C). […] Cells were transfected with these reporters along with a GFP reporter gene used to normalize transfection efficiency. After an overnight 1Ai or DMSO (vehicle control) exposure, luciferase and GFP expression were measured, and normalized activity was determined.
For the reference vs IRF7 5'UTR luciferase reporter assay, HEK239T cells in a 12-well plate were transfected with the previously described IRF7 5'UTR or reference firefly luciferase reported genes (Sehrawat et al, [2019]) (100 ng/well) together with GFP (20 ng/well) that served as an internal control by CaCl2 transfection. After 6 h, half of the growth medium was replaced with a medium containing the different compounds, reaching a final concentration of 20 µM. Twenty-four hours after transfection, transfection efficiency was evaluated using GFP fluorescence intensity (Cytation 5, ex/em: 470/525). Cells were harvested in 50 µL Reported lysis buffer (RLB) and put on a shaker for 10 min. From each well 5 µL were taken in duplicates and tested by luminometer.

[2] = test system: CUG/GUG vs AUG start codon luciferase reporters in HEK293T cells; test: Near-cognate AUG starting codon fidelity reporter assay (GUG, CUG vs AUG); assay type: cell-based; conditions: for GUG vs AUG data (%): individual repeat; for GUG vs AUG (%) Average: summary average of repeats, DMSO control average […]; for CUG vs AUG (%): CUG start codon reporter relative to AUG reporter (AUG = 100); for CUG vs AUG (%) / GUG vs AUG (%): single-experiment calculation; for GUG vs AUG (%): GUG start codon reporter relative to AUG reporter (AUG = 100)
Method: We next considered the importance of eIF1A in controlling start codon fidelity in yeast and mammalian cells (Martin-Marcos et al, [2011]; Martin-Marcos et al, [2017]; Sehrawat et al, [2019]; She et al, [2023]) and tested how inhibition of eIF1A by 1Ais affects the initiation from near-cognate AUG. The effect of 1Ais was analyzed using firefly luciferase reporters bearing either AUG (control), CUG, or GUG as the exclusive translation initiation sites. Co-transfected GFP reporter served as an internal control for transfection efficiency.
For the near-cognate AUG Starting codon fidelity reporter assay, HEK293T cells were transfected with 100 ng of the previously described luciferase reporter constructs driven either by AUG, CUG, and GUG (Tang et al, [2017]) together with GFP expressing plasmid (20 ng) as normalizing control. Luciferase and GFP levels were determined as described above.
Appendix Figure S1: (A) HEK293T cells were transfected with Luciferase reporter genes with either CUG or AUG as their exclusive starting codon. 6 hours after transfection, cells were exposed to 1Ais, and the luminescence from all constructs was measured after overnight incubation. Bars represent the ratio between luminescence from the AUG starting codon and CUG after normalization with co-transfected GFP; Error bars represent SEM, * denotes p<0.05 (T-test comparing to DMSO control), n=≥4 independent biological replicates.

eIF1A-RPS10 interaction = target: T1, eIF1A-RPS10 interaction (Homo sapiens, UniProt P46783+P47813); test: Split-Renilla luciferase eIF1A-RPS10 interaction screen, dose-response; assay type: biochemical; conditions: Appendix Table S1; read-out: IC50 from the split RL screen
T1 construct: made in house; host or cells: E. coli BL21 (PRSFduet); unpurified lysate supernatant
T1 sequence (P47813 whole entry, one chain of several): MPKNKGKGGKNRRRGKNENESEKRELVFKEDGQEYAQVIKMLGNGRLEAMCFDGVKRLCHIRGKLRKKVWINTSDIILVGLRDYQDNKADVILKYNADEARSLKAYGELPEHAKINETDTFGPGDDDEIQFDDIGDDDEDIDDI
Method: While knockdown (KD) studies of eIF1A provided valuable insights into its role in mammalian cell translation (Sehrawat et al, [2019]), this approach presents several limitations. First, it fails to elucidate the functional significance of the opposing functions of eIF1A N- and C-terminal tails with respect to scanning and start codon fidelity. Second, the extended duration required for achieving efficient knockdown, 48–72 h, impairs our ability to differentiate between direct and indirect effects. To overcome these constraints, we set out to develop small-molecule inhibitors targeting eIF1A. Guided by structural and biochemical studies showing eIF1A binding to the small ribosomal subunit at the A-site and interacting directly with RPS10 through its N-terminal tail (Haimov et al, [2017]; Passmore et al, [2007]; Sehrawat et al, [2019]), our approach focused on disrupting the interaction between eIF1A and RPS10. […] The interaction between eIF1A and RPS10 brings the two parts together, leading to the reconstitution of the enzymatic activity (Haimov et al, [2017]). In this system, the spatial arrangement of the two RL parts is critical for the enzymatic activity, making it sensitive not only to direct interference with the interacting proteins but also to changes in the conformation of the fused proteins. In the eIF1A-RPS10 split-RL pair, the C-terminus of eIF1A is fused to N-RL (Fig. 1A), in order to maintain the NTT accessible to RPS10 binding. This pair was cloned and expressed in bacteria as recombinant proteins and used to screen a library of ~50,000 small molecules from diverse sources (Ashkenazi et al, [2017]).
eIF1A-ΔC-Renilla and RPS10-ΔN-Renilla were transformed into BL21 E. coli by heat shock transformation. A bacterial starter of 5 ml LB was incubated overnight at 37 °C and transferred into 1 L LB for incubation at 37 °C until OD ~ 0.5–0.7. Next, protein expression was induced with 0.5 mM IPTG, and bacterial cells were incubated overnight at 16 °C. Bacterial cell pellet was collected after centrifugation (3000 RPM, 15 min), resuspended in 20 ml TKE buffer (Tris 10 mM, KCl 100 mM, EDTA 0.1 mM), sonicated (bath sonicator, 24 cycles of 30 s) and centrifuged again (15000 RPM, 30 min). Supernatants were collected, analyzed for RL activity, and then used for high throughput drug screen (HTS) at the Weizmann G-INCPM HTS unit as described (Ashkenazi et al, [2017]). In addition to the standard controls of this protocol, the two parts of the split RL, without eIF1A or RPS10, were tested as controls. Selected compounds were purchased from Sigma-Aldrich and Enamine. Compound powders were resuspended in DMSO for a final concentration of 10 mM and stored at −20 °C.

[3] = test system: uORF-bearing 5'UTR firefly reporters in HEK293T cells; test: uORF reinitiation / leaky scanning firefly reporters; conditions: for 95nt from uORF to main ORF experiment, minus 95nt, average (DMSO = 1): minus 95nt reporter; for averages of FF vs RL / FF vs RL / averages of FF vs RL 2 / FF vs RL 2: 95nt experiment; for averages of FF vs RL 2 / FF vs RL 2: block FF-2 (c113)
Text: (M) The reference and uORF-bearing reporters were transfected to HEK293T cells together with RL, which served to normalize translation efficiency. The reporter activities are represented as firefly vs RL; n ≥3 independent biological replicates, error bars represent SEM. *P < 0.05, **P < 0.01, Student t test. (N) Firefly Reporters (J) were transfected to HEK293T cells together with normalizing RL. […] Results are represented as firefly vs. RL normalized to DMSO in each biological replicate; n = 4, error bars represent SEM. *P < 0.05, **P < 0.01, Student t test.
In the first and second, we inserted an out-of-frame uAUG 46 or 95 nucleotides before the main ORF, respectively, followed by a downstream stop codon generating an uORF of 10 amino acids. In these constructs, the translation from the main ORF could be either by reinitiation or leaky scanning. In the third construct, this out of frame uAUG lacks a stop codon, causing initiation from the main ORF to exclusively occur via leaky scanning (Fig. 4L). These reporters were transfected into HEK293T cells together with RL luciferase reporter for normalizing transfection efficiency. […] We next examined these reporters in the presence of 1Ais.

[4] = test system: cap-proximal AUG GFP reporter in HEK293T cells; assay type: cell-based; conditions: GFP WB densitometry; 20 µM overnight; dmso 0.965946
Text: Translation from an AUG preceded by a very short 5'UTR (less than 30 nt) is usually inefficient and frequently bypassed, resulting in initiation from a downstream AUG, a phenomenon known as leaky scanning. […] To examine the impact of 1Ais on short 5'UTR initiation, we used a GFP reporter gene containing an AUG located 16 nt downstream from the 5' end followed by a second in-frame downstream AUG (Fig. 1F; Appendix Fig. S1B). Cells were transfected with this GFP reporter gene followed by exposure to DMSO (vehicle) and 1Ais. Initiations from upstream (US) or downstream (DS) AUGs were determined by western blot (WB) with anti-GFP antibodies and the ratio between the US and DS AUG was determined.
For the analysis of translation from very short 5'UTR and Leaky scanning, HEK293T cells were transfected with a GFP (20 ng/well) reporter gene driven by a cap-proximal and downstream AUGs (Elfakess et al, [2011]) together with a luciferase reporter gene (100 ng/well) as normalizing control and treated with 20 µM of 1Ais as described above. GFP levels were determined by Western blot (WB) (GFP antibody, Abcam #ab290) and quantified by densitometry (ImageJ) and normalized to the measured luciferase activity.
HEK293T cells were transfected with the GFP reporter gene schematically shown on the top. The first
AUG is […] from the 5’ end and the downstream AUG is in the same frame. Six hours after transfection, cells were treated with 1Ais. After overnight exposure to 1Ais, GFP expression was analyzed by WB using anti -GFP antibodies.
US/DS ratio was determined by densitometry and represents the long protein expression (upstream AUG, US) vs the […]
biological replicates. (C-D) Analysis of reporter genes mRNA levels after 1Ais treatment.

[5] = compound at 20uM (summary head)

CNc1nc(-c2cc(C)n(C)c2C)cs1 [1Ai-0153]
LONG (summary - All), normalized to DMSO ([1]; Long reporter, 20 µM): 0.73 and 0.87 and 1.53 and 0.96 and 1.14
SHORT (summary - All), normalized to DMSO ([1]; Short reporter, 20 µM): 0.72 and 0.98 and 1.54 and 1.66 and 1.69 and 1.65
Long 5'UTR reporter luciferase activity, normalized to DMSO (=1), single replicates ([1]; compound at 20 µM, left data block (Long), source data of Fig 1C): 0.734 and 0.8747 and 1.529 and 0.9608 and 2.673 and 1.141
average ( long vs short ratio) ([1]; 20 µM): 0.762
GUG vs AUG data (%) ([2]; compound at 20uM): 1.78% and 1.33% and 1.95% and 1.92%
GUG vs AUG (%) Average ([2]; compound at 20uM): 1.74%
IC50 (eIF1A-RPS10 interaction): 27 µM

CNc1nc(-c2cc(C)n(C)c2C)cs1 [compound 153]
CUG vs AUG (%) [2, 5]: 5.937%
GUG vs AUG (%) [2, 5]: 1.586%

O=C(COc1ccccc1[N+](=O)[O-])NCc1ccc(-c2ccc(Br)cc2)o1 [1A-4700]
firefly/Renilla normalized to DMSO, minus46 reporter ([3]; 95nt from uORF to main ORF experiment summary, experiment 240919, reporter minus46, DMSO = 1): 0.3368 and 0.3707
firefly/Renilla normalized to DMSO, minus 95nt reporter ([3]; 95nt from uORF to main ORF experiment summary, experiment 240919, reporter minus 95nt, DMSO = 1): 1.123 and 1.106
firefly/Renilla normalized to DMSO, ref reporter ([3]; 95nt from uORF to main ORF experiment summary, experiment 240919, reporter ref, DMSO = 1): 0.8256 and 0.6094
95nt from uORF to main ORF experiment, minus46, average (DMSO = 1) ([3]; minus46 reporter): 0.3537
95nt from uORF to main ORF experiment, minus 95nt, average (DMSO = 1) [3]: 1.115
95nt from uORF to main ORF experiment, ref, average (DMSO = 1) ([3]; ref reporter): 0.7175

O=C(Nc1nc(-c2c[nH]c3ccccc23)cs1)c1cc(=O)[nH]c2ccccc12 [1Ai-0403]
LONG (summary - All), normalized to DMSO ([1]; Long reporter, 5 µM): 0.54 and 1.00 and 0.95
SHORT (summary - All), normalized to DMSO ([1]; Short reporter, 5 µM): 1.05 and 0.93 and 1.12
Long: Normalized to average DMSO ([1]; data section, Long reporter, GFP-corrected, 5 µM, per experiment): 0.5423 and 1 and 0.9496
Short: Normalized to average DMSO ([1]; data section, Short reporter, GFP-corrected, 5 µM, per experiment, includes values excluded as outliers): 1.05 and 0.9341 and 1.121
average ( long vs short ratio) ([1]; 5 µM): 0.803
GUG vs AUG data (%) ([2]; compound at 5uM): 1.56% and 2.09% and 1.50% and 2.83%
GUG vs AUG (%) Average ([2]; compound at 5uM): 1.99%
US/DS ratio, average [4]: 1.283
IC50 (eIF1A-RPS10 interaction): 17 µM

O=C1c2ccccc2NC(c2cc(O)c(O)c(Cl)c2)N1c1ccccc1 (centres unmarked) [1A-8214]
averages of FF vs RL ([3]; block FF-1 (c104), reporter minus46, DMSO 0.0248618): 0.02612
FF vs RL ([3]; block FF-1 (c104), reporter minus 46, DMSO 2.74E-02, 2.23E-02): 2.94E-02 and 2.28E-02
FF vs RL ([3]; block FF-1 (c104), reporter minus 46 plus 50, DMSO 2.94E-02, 2.09E-02): 1.20E-02 and 1.67E-02
averages of FF vs RL ([3]; block FF-1 (c104), reporter minus 95, DMSO 0.0251627): 0.01437
averages of FF vs RL ([3]; block FF-1 (c104), reporter ref, DMSO 0.0298915): 0.04961
FF vs RL ([3]; block FF-1 (c104), reporter reference, DMSO 2.79E-02, 3.19E-02): 6.51E-02 and 3.41E-02
FF vs RL ([3]; block FF-1 (c131), reporter minus 46, DMSO 0.17626, 0.185518): 0.2074 and 0.2118
averages of FF vs RL ([3]; block FF-1 (c131), reporter minus46, DMSO 0.180889): 0.2096
FF vs RL ([3]; block FF-1 (c131), reporter minus 46 plus 50, DMSO 0.437858, 0.481275): 0.464 and 0.5005
averages of FF vs RL ([3]; block FF-1 (c131), reporter minus 95, DMSO 0.459566): 0.4822
averages of FF vs RL ([3]; block FF-1 (c131), reporter ref, DMSO 0.345569): 0.2779
FF vs RL ([3]; block FF-1 (c131), reporter reference, DMSO 0.39984, 0.291299): 0.281 and 0.2748
averages of FF vs RL 2 ([3]; reporter minus46, DMSO 0.0506669): 0.04195
FF vs RL 2 ([3]; reporter minus 46, DMSO 3.43E-02, 5.07E-02): 4.79E-02 and 3.60E-02
FF vs RL 2 ([3]; reporter minus 46 plus 50, DMSO 3.05E-02, 1.38E-02): 1.96E-02 and 1.61E-02
averages of FF vs RL 2 ([3]; reporter minus 95, DMSO 0.0221428): 0.01783
averages of FF vs RL 2 ([3]; reporter ref, DMSO 0.0383109): 0.05624
FF vs RL 2 ([3]; reporter reference, DMSO 3.69E-02, 3.97E-02): 6.80E-02 and 4.45E-02
reporter activity norm to DMSO, minus46 ([3]; minus46 reporter, 95nt from uORF to main ORF experiment, Figure 4N source data, replicate experiments, DMSO = 1): 0.8043 and 1.051 and 0.8279
95nt from uORF to main ORF experiment, minus46, average (DMSO = 1) ([3]; minus46 reporter): 0.8942
reporter activity norm to DMSO, minus 95 ([3]; minus 95 (nt) reporter, 95nt from uORF to main ORF experiment, Figure 4N source data, replicate experiments, DMSO = 1): 1.049 and 0.5709 and 0.8051
95nt from uORF to main ORF experiment, minus 95nt, average (DMSO = 1) [3]: 0.8085
reporter activity norm to DMSO, ref ([3]; ref reporter, 95nt from uORF to main ORF experiment, Figure 4N source data, replicate experiments, DMSO = 1): 1.159 and 1.66 and 1.468
95nt from uORF to main ORF experiment, ref, average (DMSO = 1) ([3]; ref reporter): 1.429

O=C(Nc1nc(-c2c[nH]c3ccccc23)cs1)c1cc(=O)[nH]c2ccccc12 [compound 403]
CUG vs AUG (%) ([2]; compound at 5uM (summary head)): 8.469%
GUG vs AUG (%) ([2]; compound at 5uM (summary head)): 1.79%

From PMC12216609, “Inhibitors of eIF1A-ribosome interaction unveil uORF-dependent regulation of translation initiation and antitumor and antiviral effects” (The EMBO Journal, 2025)
